Measurements taken from patent US20040220268A1, “Compound that directly stimulates phospholipase C activity” (priority 2003, published 2004).

Target: T1, PLC γ2 (Homo sapiens, UniProt P16885)
T1 sequence (P16885 1-1265): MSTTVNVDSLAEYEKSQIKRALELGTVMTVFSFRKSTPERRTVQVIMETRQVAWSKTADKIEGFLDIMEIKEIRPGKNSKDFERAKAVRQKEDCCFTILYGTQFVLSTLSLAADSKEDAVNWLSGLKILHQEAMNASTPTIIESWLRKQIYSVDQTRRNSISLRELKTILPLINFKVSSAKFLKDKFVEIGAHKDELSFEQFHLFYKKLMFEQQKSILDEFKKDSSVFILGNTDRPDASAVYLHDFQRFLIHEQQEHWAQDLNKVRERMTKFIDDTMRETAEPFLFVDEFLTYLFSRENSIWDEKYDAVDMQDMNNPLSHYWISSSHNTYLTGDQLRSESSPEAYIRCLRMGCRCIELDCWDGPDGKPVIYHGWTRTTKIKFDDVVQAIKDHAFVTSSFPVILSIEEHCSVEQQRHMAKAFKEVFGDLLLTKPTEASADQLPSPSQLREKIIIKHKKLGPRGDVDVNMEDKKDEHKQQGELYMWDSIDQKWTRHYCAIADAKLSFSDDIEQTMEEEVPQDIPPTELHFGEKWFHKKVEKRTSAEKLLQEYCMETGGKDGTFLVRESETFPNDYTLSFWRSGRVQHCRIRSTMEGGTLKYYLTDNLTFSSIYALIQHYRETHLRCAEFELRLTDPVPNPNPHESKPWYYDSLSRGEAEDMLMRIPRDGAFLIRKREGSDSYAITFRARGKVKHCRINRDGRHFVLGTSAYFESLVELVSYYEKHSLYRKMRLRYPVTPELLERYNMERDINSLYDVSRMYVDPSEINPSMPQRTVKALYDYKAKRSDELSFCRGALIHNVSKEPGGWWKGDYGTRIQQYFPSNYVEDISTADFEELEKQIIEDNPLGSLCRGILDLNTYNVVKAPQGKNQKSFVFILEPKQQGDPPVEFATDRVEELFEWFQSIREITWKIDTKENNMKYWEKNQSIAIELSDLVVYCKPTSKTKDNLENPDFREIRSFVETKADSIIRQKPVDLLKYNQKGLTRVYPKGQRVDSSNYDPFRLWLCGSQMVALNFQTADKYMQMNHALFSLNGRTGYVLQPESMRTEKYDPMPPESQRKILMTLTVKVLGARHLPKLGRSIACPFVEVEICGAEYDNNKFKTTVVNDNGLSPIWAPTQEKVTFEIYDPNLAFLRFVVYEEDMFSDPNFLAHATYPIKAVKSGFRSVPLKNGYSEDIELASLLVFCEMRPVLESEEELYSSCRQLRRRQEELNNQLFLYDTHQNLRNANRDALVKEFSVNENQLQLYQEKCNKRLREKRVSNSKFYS
Test: Phosphoinositide hydrolysis in vitro
Type: biochemical
Settings: 25 μM; purified isozyme
Protocol: The hydrolyzing activity of PtdIns-4,5-P2 was measured on mixed phospholipid vesicles containing 120 μM phosphatidylethanolamine, 30 μM PtdIns-4,5-P2, and 1 μCi/ml [3H] PtdIns-4,5-P2. Purified PLC β2, substrates, and the chemicals (2.5, 5, 10, 20, and 25 μM of m-3M3FBS or of o-3M3FBS) were coincubated (A), 25 μM of m-3M3FBS or o-3M3FBS, and phospholipid substrates were mixed with purified PLC β3, γ1, 2, or δ1 (B). Reactions were performed for 10 min at 37° C. in a 200 μl reaction mixture containing lipid micelles (5 μM [^3H] PtdIns-4,5-P2, 20,000 cpm). Reactions were stopped by adding 1 ml of CHCl3:CH3OH:HCl (50:50:0.3, v/v/v). Inositol trisphosphates were extracted with 0.5 ml of 1 M HCl/5 mM EGTA, and the radioactivity in the upper aqueous phase was measured. Data are presented as means ±S. E. M. of three independent experiments (A, B).
PLC activity was assayed using [^3H] PtdIns-4,5-P2 as a substrate (Min et al., 1993). PtdIns-4,5-P2-hydrolyzing activity was measured with mixed phospholipid micelles containing 120 μM phosphatidylethanolamine, 30 μM PtdIns-4,5-P2, and 1 μCi/ml [^3H] PtdIns-4,5-P2. The lipids, in chloroform, were dried under a stream of nitrogen gas, suspended in assay buffer (20 mM HEPES pH 7.0, 120 mM NaCl, 2 mM MgCl2, 40 or 100 μM CaCl2, and 1 mg/ml bovine albumin serum (Bayer, Leverkusen, Germany)), and sonicated. All proteins added to the reaction mixture were dialyzed overnight against the assay buffer. Incubation was performed for 10 min at 37° C. in a 200 μl reaction mixture containing lipid micelles (5 μM [3H] PtdIns-4,5-P2, 20,000 cpm). The reaction was stopped by adding 2 ml of CHCl3: CH3OH: HCl (50: 50: 0.3, v/v/v). The inositol triphosphates were extracted with 0.5 ml of 1 N HCl, and radioactivities in the upper aqueous phase were measured.

Compound	activity of PLC gamma2
Cc1cc(C)c(S(=O)(=O)Nc2cccc(C(F)(F)F)c2)c(C)c1 [m-3M3FBS, 2,4,6-Trimethyl-N-(meta 3-trifluoromethyl-phenyl)-benzenesulfonamide]	augmented the activity
Cc1cc(C)c(S(=O)(=O)Nc2ccccc2C(F)(F)F)c(C)c1 [o-3M3FBS, 2,4,6-Trimethyl-N-(ortho 3-trifluoromethyl-phenyl)-benzenesulfonamide, reference compound]	did not affect
